According to publication PMC9410468 (Marine Drugs, 2022):

Tests used:
rα3β4 nAChR = rα3β4 nAChR (Rattus norvegicus, UniProt P04757+P12392); assay type: cell-based
rα6/α3β4 nAChR = assay type: cell-based, rat
RAW264.7 cells [1] = assay type: cell-based, mouse
RAW264.7 cells [2] = assay type: cell-based, mouse; remark: listed apart in the source
α3β4 nAChR = conditions: cited from earlier work
[3] = in vivo; cited from earlier work

rα3β4 nAChR, sequence (P04757 26-499 limits assumed): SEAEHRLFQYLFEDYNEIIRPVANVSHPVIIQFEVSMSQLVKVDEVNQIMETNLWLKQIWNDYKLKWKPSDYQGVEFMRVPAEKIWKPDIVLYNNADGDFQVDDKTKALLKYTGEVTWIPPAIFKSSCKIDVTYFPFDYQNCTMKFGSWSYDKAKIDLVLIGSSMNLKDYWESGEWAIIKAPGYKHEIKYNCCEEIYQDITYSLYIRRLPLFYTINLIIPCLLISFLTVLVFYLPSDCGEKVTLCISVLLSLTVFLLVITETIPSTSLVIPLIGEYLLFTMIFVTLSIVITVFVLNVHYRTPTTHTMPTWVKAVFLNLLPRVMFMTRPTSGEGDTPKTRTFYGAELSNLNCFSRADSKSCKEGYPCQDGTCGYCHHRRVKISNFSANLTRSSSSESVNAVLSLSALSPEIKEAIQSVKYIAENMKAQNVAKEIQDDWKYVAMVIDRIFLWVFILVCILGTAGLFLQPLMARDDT
rα3β4 nAChR, sequence (P12392 21-495 limits assumed): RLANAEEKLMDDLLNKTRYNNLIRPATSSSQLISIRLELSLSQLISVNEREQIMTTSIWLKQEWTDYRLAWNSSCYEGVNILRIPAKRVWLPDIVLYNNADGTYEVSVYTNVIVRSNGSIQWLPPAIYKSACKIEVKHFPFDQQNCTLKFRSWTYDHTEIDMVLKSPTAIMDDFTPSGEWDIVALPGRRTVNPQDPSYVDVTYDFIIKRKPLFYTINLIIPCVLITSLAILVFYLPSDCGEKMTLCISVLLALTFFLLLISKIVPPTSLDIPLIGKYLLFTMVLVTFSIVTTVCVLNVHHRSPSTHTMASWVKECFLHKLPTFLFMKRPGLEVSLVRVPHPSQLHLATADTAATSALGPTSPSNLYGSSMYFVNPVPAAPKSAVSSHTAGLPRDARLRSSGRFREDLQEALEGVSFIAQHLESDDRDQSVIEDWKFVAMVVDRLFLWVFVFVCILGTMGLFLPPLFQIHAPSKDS

SMILES	Hill Slope (rα3β4 nAChR)	change of IC50 compared with WT TxID (rα3β4 nAChR)	inhibitory activity at rα3β4 (in words) (rα3β4 nAChR)	potency at α3β4 compared with native TxID (in words) (rα3β4 nAChR)	inhibitory activity at rα6/α3β4 (in words) (rα6/α3β4 nAChR)	fluorescence intensity, flow cytometry (in words) (RAW264.7 cells [1])	red fluorescence labelling of cells (in words) (RAW264.7 cells [2])	IC50 (α3β4 nAChR)	anti-nicotine addiction effect (in words) [3]
CC[C@H](C)[C@@H]1NC(=O)[C@@H]2CCCN2C(=O)[C@H](CO)NC(=O)[C@H](CCSC)NC(=O)[C@H](C)NC(=O)[C@H](CO)NC(=O)[C@@H]2CSSC[C@H](NC(=O)CNC(=O)c3ccc(-c4c5ccc(=[N+](C)C)cc-5oc5cc(N(C)C)ccc45)c(C(=O)[O-])c3)C(=O)N[C@@H](CSSC[C@@H](C(N)=O)NC1=O)C(=O)N[C@@H](CO)C(=O)N[C@@H](Cc1c[nH]cn1)C(=O)N1CCC[C@H]1C(=O)N[C@@H](C(C)C)C(=O)N2 [TxID-F]	0.8 (0.7–0.9)	3 fold	most inhibitory activity	maintained the same order of potency	followed with the rα6/α3β4 subtype	strong fluorescence intensity	red fluorescence signal was observed on the RAW264.7 cells	–	–
CC[C@H](C)[C@@H]1NC(=O)[C@@H]2CCCN2C(=O)[C@H](CO)NC(=O)[C@H](CCSC)NC(=O)[C@H](C)NC(=O)[C@H](CO)NC(=O)[C@@H]2CSSC[C@H](NC(=O)CN)C(=O)N[C@@H](CSSC[C@@H](C(N)=O)NC1=O)C(=O)N[C@@H](CO)C(=O)N[C@@H](Cc1c[nH]cn1)C(=O)N1CCC[C@H]1C(=O)N[C@@H](C(C)C)C(=O)N2 [TxID]	0.6 (0.5–0.7)	–	–	–	–	–	–	[…]	anti-nicotine addiction effect
